The assay has as its target SOS1-KRAS (Homo sapiens, UniProt P01116, G12D). The assay can be described thus: Inhibition of SOS1/KRAS G12D mutant (unknown origin) protein-protein interaction incubated for 3 hrs by HTRF analysis.

Sequence of SOS1-KRAS (P01116 whole entry G12D, looked up): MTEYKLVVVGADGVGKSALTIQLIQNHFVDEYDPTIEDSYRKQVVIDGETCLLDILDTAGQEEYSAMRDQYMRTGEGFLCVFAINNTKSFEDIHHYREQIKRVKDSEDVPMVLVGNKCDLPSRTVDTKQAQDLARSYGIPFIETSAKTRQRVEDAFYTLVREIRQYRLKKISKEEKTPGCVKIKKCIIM

Turning to `[2H]C([2H])(Oc1nc2c(c(N3CC4CCC(C3)N4)n1)CCN(c1cc(O)ccc1C(F)(F)F)C2)C12CCCN1CCC2`, the IC50 was greater than 250 nM. As for `[2H]C([2H])(Oc1nc2c(c(N3CC4CCC(C3)N4)n1)CCN(c1cc(O)cc(Cl)c1C(F)(F)F)C2)C12CCCN1CCC2`, the IC50 is greater than 50 nM. In the case of `[2H]C([2H])(Oc1nc(N2CC3CCC(C2)N3)c2cnc(-c3cc(O)cc(Cl)c3C(F)(F)F)c(F)c2n1)C12CCCN1CCC2` it was no more than 50 nM; in that of `[2H]C([2H])(Oc1nc(N2CC3CCC2CN3)c2cnc(-c3cc(O)cc(Cl)c3C(F)(F)F)c(F)c2n1)C12CCCN1CCC2` (centres undefined), no more than 50 nM.

Source of the values: ChEMBL document CHEMBL5252655, “Discovery of Potent Deuterated Compounds as Potential KRASG12D Inhibitors in Cancer Therapy” (ACS Med Chem Lett, 2023).
